Active and inactive are the calls of the source. The calls are words filed in the database; no cut-off is given here.

For one data set, the system named is 3T3-L1. Put plainly: Inhibition of triglyceride accumulation in mouse 3T3L1 cells at 10 uM after 24 hrs. In kind it is functional. As to conditions: for inhibition at 10 µM: 3T3-L1, 24 h.
Data set [1] has as its system Mus musculus. The experiment in a line: Antiobesity activity in diet-induced obese C57Bl/6 mouse assessed as reduction in hepatic triglyceride level at 50 mg/kg/day, po for 4 weeks administered with high-fat diet by Oil Red O staining-based histological method. Details: scale not given: the % may be the effect or the level left. In kind it is functional.
The subject of data set [2] is Mus musculus. Put plainly: Antiobesity activity in diet-induced obese C57Bl/6 mouse assessed as reduction in body weight at 50 mg/kg/day, po for 4 weeks administered with high-fat diet. The class given is functional. More on the design: scale not given: the % may be the effect or the level left.
Data set [3] concerns Mus musculus. The experiment in a line: Antiobesity activity in diet-induced obese C57Bl/6 mouse assessed as reduction in triglyceride level at 50 mg/kg/day, po for 4 weeks administered with high-fat diet (reference value: 0.93 +/- 0.09 mM). The class given is functional.
In data set [4] the test system is Mus musculus. Put plainly: Antiobesity activity in diet-induced obese C57Bl/6 mouse assessed as loss of liver weight at 50 mg/kg/day, po for 4 weeks administered with high-fat diet. In kind it is functional.
Data set [5] has as its system Rattus norvegicus. The experiment in a line: Acute toxicity in Sprague-Dawley rat assessed as mortality at 2.5 g/kg, po as single dose measured after 7 days. In kind it is organism-based. As to conditions: in vivo, 2500 mg/kg, 168 h.
For data set [6], the system named is Mus musculus. The experiment in a line: Antiobesity activity in diet-induced obese C57Bl/6 mouse assessed as change in insulin level at 50 mg/kg/day, po for 4 weeks administered with high-fat diet (reference value: 11.85 +/- 2.6 mU). The class given is functional.
Data set [7] deals with Mus musculus. The experiment in a line: Increase in glucose tolerance in diet-induced obese C57Bl/6 mouse at 50 mg/kg/day, po for 4 weeks by oral glucose tolerance test. The class given is functional, organism-based.
In data set [8] the test system is Mus musculus. The experiment in a line: Antiobesity activity in diet-induced obese C57Bl/6 mouse assessed as reduction in LDL level at 50 mg/kg/day, po for 4 weeks administered with high-fat diet (reference value: 0.14 +/- 0.07 mM). The class given is functional.
Data set [9] deals with Mus musculus. Put plainly: Antiobesity activity in diet-induced obese C57Bl/6 mouse assessed as loss of epididymal fat mass at 50 mg/kg/day, po for 4 weeks administered with high-fat diet. In kind it is functional.
Data set [10] relates to Mus musculus. Put plainly: Antiobesity activity in diet-induced obese C57Bl/6 mouse assessed as reduction in fasting blood glucose at 50 mg/kg/day, po for 4 weeks administered with high-fat diet (reference value: 5.0 +/- 1.30 mM). In kind it is functional.
Data set [11] deals with Mus musculus. The experiment in a line: Antiobesity activity in diet-induced obese C57Bl/6 mouse assessed as reduction in fat accumulation in liver at 50 mg/kg/day, po for 4 weeks administered with high-fat diet by Oil Red O staining-based histological method. In kind it is functional, organism-based.
Data set [12] has as its system Mus musculus. The experiment in a line: Antiobesity activity in diet-induced obese C57Bl/6 mouse assessed as increase in HDL level at 50 mg/kg/day, po for 4 weeks administered with high-fat diet (reference value: 0.60 +/- 0.17 mM). The class given is functional.
In data set [13] the test system is Mus musculus. The experiment in a line: Toxicity in diet-induced obese C57Bl/6 mouse assessed as change in AST level at 50 mg/kg/day, po for 4 weeks administered with high-fat diet (reference value: 125.00 +/- 35.00 U/L). In kind it is organism-based. More on the design: route oral. As to conditions: in vivo, 672 h.
Data set [14] relates to Mus musculus. Put plainly: Decrease in insulin resistance in diet-induced obese C57Bl/6 mouse assessed as induction of insulin secretion at 50 mg/kg/day, po for 4 weeks by insulin tolerance test. In kind it is functional, organism-based.
In data set [15] the test system is Mus musculus. Put plainly: Toxicity in diet-induced obese C57Bl/6 mouse assessed as change in ALT level at 50 mg/kg/day, po for 4 weeks administered with high-fat diet (reference value: 33.00 +/- 18.23 U/L). More on the design: route oral. As to conditions: in vivo, 672 h. The class given is organism-based.
Data set [16] relates to Mus musculus. The experiment in a line: Antiobesity activity in diet-induced obese C57Bl/6 mouse assessed as reduction in lipid droplets in liver at 50 mg/kg/day, po for 4 weeks administered with high-fat diet by Oil Red O staining-based histological method. In kind it is functional, organism-based.
The subject of data set [17] is Mus musculus. Put plainly: Antiobesity activity in diet-induced obese C57Bl/6 mouse assessed as reduction in HOMA-IR value at 50 mg/kg/day, po for 4 weeks administered with high-fat diet (reference value: 3.06 +/- 0.85 no_unit). The class given is functional.
For data set [18], the system named is Mus musculus. The experiment in a line: Antiobesity activity in diet-induced obese C57Bl/6 mouse assessed as reduction in FFA level at 50 mg/kg/day, po for 4 weeks administered with high-fat diet (reference value: 19.55 +/- 1.57 ng/L). In kind it is functional.
The test system of data set [19] is Rattus norvegicus. Put plainly: Acute toxicity in Sprague-Dawley rat assessed as change in body weight at 2.5 g/kg, po as single dose measured after 7 days. In kind it is organism-based. As to conditions: in vivo, 2500 mg/kg, 168 h.
The subject of data set [20] is Mus musculus. Put plainly: Toxicity in diet-induced obese C57Bl/6 mouse assessed as change in food intake at 50 mg/kg/day, po for 4 weeks administered with high-fat diet. The class given is organism-based. More on the design: route oral. As to conditions: in vivo, 672 h.
The subject of data set [21] is Rattus norvegicus. The experiment in a line: Acute toxicity in Sprague-Dawley rat assessed as clinical signs at 2.5 g/kg, po as single dose measured after 7 days. In kind it is organism-based. As to conditions: in vivo, 2500 mg/kg, 168 h.

Take `CCn1c(-c2ccc(OCCN(C)c3ccccn3)cc2)nc2c1c(=O)n(Cc1ccc(F)cc1)c(=O)n2C`: the inhibition result with 3T3-L1 was “inactive”.

With `C=CCn1c(-c2ccc(OCCN(C)c3ccccn3)cc2)nc2c1c(=O)n(Cc1ccc(OC)cc1)c(=O)n2C`, the inhibition result in the data set with 3T3-L1 is “inactive”.

Turning to `CN(CCOc1ccc(-c2nc3c(c(=O)[nH]c(=O)n3C)n2COC(=O)C(C)(C)C)cc1)c1ccccn1`, in the data set with 3T3-L1, the inhibition result is “Active”.

With `CCOC(=O)CCCn1c(=O)c2c(nc(-c3ccc(OCCN(C)c4ccccn4)cc3)n2COC(=O)C(C)(C)C)n(C)c1=O`, the inhibition entry with 3T3-L1 was “inactive”.

As for `CCn1c(-c2ccc(OCCN(C)c3ccccn3)cc2)nc2c1c(=O)n(Cc1ccc(OC)cc1)c(=O)n2C`, the inhibition entry with 3T3-L1 was “inactive”.

For `CN(CCOc1ccc(-c2nc3c(c(=O)n(CC(=O)O)c(=O)n3C)n2CC(=O)O)cc1)c1ccccn1`, the inhibition entry in the data set with 3T3-L1 is “Active”.

For the molecule `CCOC(=O)Cn1c(-c2ccc(OCCN(C)c3ccccn3)cc2)nc2c1c(=O)n(Cc1ccccc1C#N)c(=O)n2C`, the inhibition entry in the data set with 3T3-L1 was “inactive”.

Turning to `CN(CCOc1ccc(-c2nc3c(c(=O)n(Cc4ccccc4C#N)c(=O)n3C)n2CCO)cc1)c1ccccn1`, the inhibition result with 3T3-L1 was “Active”.

As to `COc1ccc(Cn2c(=O)c3[nH]c(-c4ccc(OCCN(C)c5ccccn5)cc4)nc3n(C)c2=O)cc1`, the inhibition result with 3T3-L1 was “inactive”.

Turning to `CC(C)Cn1c(-c2ccc(OCCN(C)c3ccccn3)cc2)nc2c1c(=O)n(Cc1ccccc1C#N)c(=O)n2C`, the inhibition result with 3T3-L1 is “inactive”.

With `C=CCn1c(=O)c2[nH]c(-c3ccc(OCCN(C)c4ccccn4)cc3)nc2n(C)c1=O`, in the data set with 3T3-L1, the inhibition result is “inactive”.

With `NC(=O)c1ncn([C@@H]2O[C@H](CO)[C@@H](O)[C@H]2O)c1N` [ACADESINE], at 10 µM the inhibition in the data set on 3T3-L1 was 51%.

For the molecule `CCOC(=O)Cn1c(=O)c2c(nc(-c3ccc(OCCN(C)c4ccccn4)cc3)n2COC(=O)C(C)(C)C)n(C)c1=O`, the inhibition entry in the data set with 3T3-L1 was “inactive”.

Turning to `CCn1c(=O)c2c(nc(-c3ccc(OCCN(C)c4ccccn4)cc3)n2CC)n(C)c1=O`, the inhibition result in the data set with 3T3-L1 was “inactive”.

On to `CCCn1c(=O)c2c(nc(-c3ccc(OCCN(C)c4ccccn4)cc3)n2CCC)n(C)c1=O`, for which the inhibition result in the data set with 3T3-L1 is “inactive”.

Take `CCOC(=O)CCCn1c(-c2ccc(OCCN(C)c3ccccn3)cc2)nc2c1c(=O)n(Cc1ccccc1C#N)c(=O)n2C`: the inhibition result in the data set on 3T3-L1 was “inactive”.

On to `CCCCn1c(-c2ccc(OCCN(C)c3ccccn3)cc2)nc2c1c(=O)n(Cc1ccccc1C#N)c(=O)n2C`, for which the inhibition result in the data set with 3T3-L1 was “Active”.

As to `C=CCn1c(-c2ccc(OCCN(C)c3ccccn3)cc2)nc2c1c(=O)n(Cc1ccc(F)cc1)c(=O)n2C`, the inhibition result in the data set with 3T3-L1 was “inactive”.

Regarding `CCCn1c(=O)c2c(nc(-c3ccc(OCCN(C)c4ccccn4)cc3)n2CC)n(C)c1=O`, the inhibition result in the data set with 3T3-L1 was “inactive”.

In the case of `C=CCn1c(=O)c2c(nc(-c3ccc(OCCN(C)c4ccccn4)cc3)n2CC=C)n(C)c1=O`, in the data set on 3T3-L1, the inhibition entry is “inactive”.

Take `CCCn1c(-c2ccc(OCCN(C)c3ccccn3)cc2)nc2c1c(=O)n(Cc1ccccc1C#N)c(=O)n2C`: the Activity in the data set on Mus musculus [1] is listed as 5.15%; in the data set on Mus musculus [2] it was 7.64%; in the data set with Mus musculus [3], 1.15 mM; in the data set on Mus musculus [4], 12.8%; in the data set with Rattus norvegicus [5], “Non-toxic”; in the data set with Mus musculus [6], 12.04 mU. The Activity in the data set on Mus musculus [8] stood at 0.16 mM; in the data set with Mus musculus [9], 4.76%; in the data set on Mus musculus [10], 7.25 mM; in the data set on Mus musculus [12], 0.96 mM; with Mus musculus [13] it was 150 U/L; with Mus musculus [15], 86 U/L. Moreover, the Activity in the data set with Mus musculus [17] was 3.99; with Mus musculus [18], 24.43 ng/L; with Rattus norvegicus [19], “Non-toxic”; in the data set with Mus musculus [20], “Non-toxic”; in the data set on Rattus norvegicus [21], “Non-toxic”. The outcome in the data set with Mus musculus [7], in the data set with Mus musculus [14] and in the data set with Mus musculus [16] was inactive. For the same molecule, in the data set with Mus musculus [11], the outcome was Active. Also, in the data set with 3T3-L1, the inhibition at 10 µM was determined as 51.1%.

On to `CN(CCOc1ccc(-c2nc3c([nH]2)c(=O)n(CCCC(=O)O)c(=O)n3C)cc1)c1ccccn1`, for which, in the data set on 3T3-L1, the inhibition result is “inactive”.

As for `CN(CCOc1ccc(-c2nc3c([nH]2)c(=O)n(CC(=O)O)c(=O)n3C)cc1)c1ccccn1`, in the data set on 3T3-L1, the inhibition result is “inactive”.

`CN(CCOc1ccc(-c2nc3c(c(=O)n(Cc4ccccc4C#N)c(=O)n3C)n2C)cc1)c1ccccn1`: the inhibition entry in the data set on 3T3-L1 is “inactive”.

On to `CN(CCOc1ccc(-c2nc3c(c(=O)n(Cc4ccccc4C#N)c(=O)n3C)n2CCCC(=O)O)cc1)c1ccccn1`, for which, in the data set with 3T3-L1, the inhibition entry was “inactive”.

As to `CC(C)=CCn1c(-c2ccc(OCCN(C)c3ccccn3)cc2)nc2c1c(=O)n(Cc1ccccc1C#N)c(=O)n2C`, the inhibition result with 3T3-L1 was “inactive”.

As to `CCCCCn1c(-c2ccc(OCCN(C)c3ccccn3)cc2)nc2c1c(=O)n(Cc1ccccc1C#N)c(=O)n2C`, the inhibition result in the data set on 3T3-L1 was “inactive”.

As to `CN(CCOc1ccc(-c2nc3c(c(=O)n(Cc4ccccc4C#N)c(=O)n3C)n2CC(=O)O)cc1)c1ccccn1`, in the data set on 3T3-L1, the inhibition result was “inactive”.

For `C=CCn1c(-c2ccc(OCCN(C)c3ccccn3)cc2)nc2c1c(=O)n(Cc1ccccc1C#N)c(=O)n2C`, the inhibition result in the data set with 3T3-L1 is “inactive”.

On to `CCCn1c(=O)c2[nH]c(-c3ccc(OCCN(C)c4ccccn4)cc3)nc2n(C)c1=O`, for which the inhibition result in the data set on 3T3-L1 is “inactive”.

The values above are taken from ChEMBL document CHEMBL3352801, “Synthesis and lipid-lowering evaluation of 3-methyl-1H-purine-2,6-dione derivatives as potent and orally available anti-obesity agents” (Eur J Med Chem, 2014).
